From ChEMBL document CHEMBL1201862, “PubChem BioAssay data set” (2004) come the findings set out here.

Holding throughout (type): functional
Assay [1] deals with T1, Sentrin-specific protease 8 (Homo sapiens, UniProt Q96LD8).
T1 sequence (Q96LD8 whole entry): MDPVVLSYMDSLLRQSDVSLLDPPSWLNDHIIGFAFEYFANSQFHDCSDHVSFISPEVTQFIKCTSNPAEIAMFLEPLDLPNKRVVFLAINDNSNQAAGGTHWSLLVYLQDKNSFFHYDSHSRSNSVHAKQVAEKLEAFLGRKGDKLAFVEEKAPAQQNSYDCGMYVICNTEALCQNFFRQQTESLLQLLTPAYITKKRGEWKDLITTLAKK

Assay [2] deals with T2, Sentrin-specific protease 7 (Homo sapiens, UniProt Q9BQF6).
T2 sequence (Q9BQF6 whole entry): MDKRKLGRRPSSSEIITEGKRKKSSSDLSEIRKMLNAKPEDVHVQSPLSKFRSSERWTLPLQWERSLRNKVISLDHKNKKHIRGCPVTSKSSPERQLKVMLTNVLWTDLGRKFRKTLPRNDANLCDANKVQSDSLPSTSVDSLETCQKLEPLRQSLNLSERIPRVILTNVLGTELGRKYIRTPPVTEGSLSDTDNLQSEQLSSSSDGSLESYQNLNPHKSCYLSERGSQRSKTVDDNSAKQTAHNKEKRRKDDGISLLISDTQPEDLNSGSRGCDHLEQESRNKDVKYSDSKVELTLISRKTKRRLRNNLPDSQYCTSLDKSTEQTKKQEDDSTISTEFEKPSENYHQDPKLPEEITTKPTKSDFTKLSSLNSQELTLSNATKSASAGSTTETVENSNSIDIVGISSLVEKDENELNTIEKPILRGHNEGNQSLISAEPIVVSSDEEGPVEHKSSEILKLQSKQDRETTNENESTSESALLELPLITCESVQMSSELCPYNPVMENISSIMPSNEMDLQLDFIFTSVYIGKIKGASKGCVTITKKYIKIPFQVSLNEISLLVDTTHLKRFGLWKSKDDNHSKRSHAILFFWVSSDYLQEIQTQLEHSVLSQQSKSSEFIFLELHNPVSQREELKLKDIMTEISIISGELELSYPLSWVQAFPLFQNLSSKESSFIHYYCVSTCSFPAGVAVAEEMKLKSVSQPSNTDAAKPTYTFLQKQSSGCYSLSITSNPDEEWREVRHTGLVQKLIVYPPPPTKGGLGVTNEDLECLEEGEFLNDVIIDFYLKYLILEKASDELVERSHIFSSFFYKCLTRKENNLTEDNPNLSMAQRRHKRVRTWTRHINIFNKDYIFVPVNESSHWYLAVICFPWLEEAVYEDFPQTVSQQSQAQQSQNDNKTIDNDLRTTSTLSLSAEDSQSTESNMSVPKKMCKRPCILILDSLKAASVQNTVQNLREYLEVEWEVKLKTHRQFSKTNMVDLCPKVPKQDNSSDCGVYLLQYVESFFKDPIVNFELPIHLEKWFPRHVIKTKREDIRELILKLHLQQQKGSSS

The target in assay [3] is T3, Sentrin-specific protease 6 (Homo sapiens, UniProt Q9GZR1).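 Also: Luminescence-based dose-response confirmatory assay of SENP6 inhibition, following up an ultra-high-throughput screen.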
T3 sequence (Q9GZR1 whole entry): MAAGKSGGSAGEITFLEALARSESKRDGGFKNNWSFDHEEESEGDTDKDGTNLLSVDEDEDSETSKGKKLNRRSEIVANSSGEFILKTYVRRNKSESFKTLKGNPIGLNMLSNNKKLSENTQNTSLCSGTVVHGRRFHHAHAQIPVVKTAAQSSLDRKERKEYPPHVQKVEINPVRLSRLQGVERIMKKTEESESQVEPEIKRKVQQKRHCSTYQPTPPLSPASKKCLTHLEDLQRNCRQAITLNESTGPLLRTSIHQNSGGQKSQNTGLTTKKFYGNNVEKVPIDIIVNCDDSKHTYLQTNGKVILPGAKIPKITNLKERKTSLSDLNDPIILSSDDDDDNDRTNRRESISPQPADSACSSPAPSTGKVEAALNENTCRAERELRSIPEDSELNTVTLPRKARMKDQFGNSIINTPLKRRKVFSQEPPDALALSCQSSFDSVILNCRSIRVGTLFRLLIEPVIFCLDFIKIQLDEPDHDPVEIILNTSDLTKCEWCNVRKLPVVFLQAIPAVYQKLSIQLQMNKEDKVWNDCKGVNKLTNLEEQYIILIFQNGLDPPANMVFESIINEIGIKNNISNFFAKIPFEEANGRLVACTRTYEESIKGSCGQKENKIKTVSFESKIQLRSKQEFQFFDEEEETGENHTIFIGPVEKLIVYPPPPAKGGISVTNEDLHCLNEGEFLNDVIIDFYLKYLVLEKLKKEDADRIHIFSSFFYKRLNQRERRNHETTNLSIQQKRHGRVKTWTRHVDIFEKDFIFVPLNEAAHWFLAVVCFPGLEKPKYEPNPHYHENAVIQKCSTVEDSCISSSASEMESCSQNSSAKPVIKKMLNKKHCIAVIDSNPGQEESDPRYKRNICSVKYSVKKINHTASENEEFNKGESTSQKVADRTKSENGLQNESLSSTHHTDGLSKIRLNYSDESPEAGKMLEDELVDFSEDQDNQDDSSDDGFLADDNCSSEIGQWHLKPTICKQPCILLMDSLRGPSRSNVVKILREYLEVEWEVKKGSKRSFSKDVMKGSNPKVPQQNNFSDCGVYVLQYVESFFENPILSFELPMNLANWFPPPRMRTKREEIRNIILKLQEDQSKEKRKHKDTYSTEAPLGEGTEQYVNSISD

Assay [4] concerns the target T4, Caspase-3 (Homo sapiens, UniProt P42574).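 Also: Dose-response selectivity test against caspase-3 for candidate inhibitors of sentrin-specific proteases (SENPs).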
T4 sequence (P42574 whole entry): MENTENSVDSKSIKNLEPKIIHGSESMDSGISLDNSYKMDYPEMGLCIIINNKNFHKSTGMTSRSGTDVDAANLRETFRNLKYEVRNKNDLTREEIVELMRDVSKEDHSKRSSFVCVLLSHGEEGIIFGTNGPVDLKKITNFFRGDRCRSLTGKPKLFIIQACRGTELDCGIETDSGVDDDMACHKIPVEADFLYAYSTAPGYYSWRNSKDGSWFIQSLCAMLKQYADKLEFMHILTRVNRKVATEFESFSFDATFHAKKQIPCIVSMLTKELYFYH

Assay [5] concerns the target T5, Endoribonuclease toxin MazF (Escherichia coli K-12, UniProt P0AE70).
T5 sequence (P0AE70 whole entry): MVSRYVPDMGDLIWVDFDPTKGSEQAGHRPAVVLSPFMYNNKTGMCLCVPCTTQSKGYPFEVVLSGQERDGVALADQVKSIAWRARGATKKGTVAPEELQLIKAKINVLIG
Description: fluorescent RNA oligo signal without MazF, dose response, counter-screen for MazEF activator project, biochemical, fluorescence, single-stranded RNase substrate (AID 588502).

Assay [6] concerns the target T5, Endoribonuclease toxin MazF. Description: MazF toxin RNase activators, dose response, biochemical, fluorescence, single-stranded RNA substrate, uHTS hits (AID 588481).
For assay [7], the target named is T6, Low molecular weight phosphotyrosine protein phosphatase (Homo sapiens, UniProt P24666).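 Also: Dose-response confirmation assay measuring inhibition of LMPTP enzyme activity by fluorescence intensity read-out.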
T6 sequence (P24666 whole entry): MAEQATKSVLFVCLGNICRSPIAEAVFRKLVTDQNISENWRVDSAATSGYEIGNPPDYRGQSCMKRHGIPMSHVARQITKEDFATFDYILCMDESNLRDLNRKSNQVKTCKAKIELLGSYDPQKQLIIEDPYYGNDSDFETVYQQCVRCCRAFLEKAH
The conditions noted are these: read-out: IC50_Mean.

Assay [8] concerns the target T7, Heat shock factor protein 1 (Mus musculus, UniProt P38532).
T7 sequence (P38532 whole entry): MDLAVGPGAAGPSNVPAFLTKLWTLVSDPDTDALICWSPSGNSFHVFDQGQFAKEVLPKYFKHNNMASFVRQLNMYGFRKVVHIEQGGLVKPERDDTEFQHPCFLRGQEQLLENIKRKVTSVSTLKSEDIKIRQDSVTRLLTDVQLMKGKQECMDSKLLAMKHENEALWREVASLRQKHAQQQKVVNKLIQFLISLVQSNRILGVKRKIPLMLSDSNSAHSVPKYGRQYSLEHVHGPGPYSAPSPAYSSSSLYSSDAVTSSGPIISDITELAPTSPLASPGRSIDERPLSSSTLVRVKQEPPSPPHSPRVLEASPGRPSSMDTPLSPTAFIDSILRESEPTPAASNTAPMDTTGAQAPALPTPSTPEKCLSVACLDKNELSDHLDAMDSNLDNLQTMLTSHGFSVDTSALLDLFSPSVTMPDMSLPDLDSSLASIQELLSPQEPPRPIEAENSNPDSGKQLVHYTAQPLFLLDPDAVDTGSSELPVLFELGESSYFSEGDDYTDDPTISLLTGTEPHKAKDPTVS
Nature of the assay: HSF1 potentiators in luciferase reporter cells, confirmation, cell-based, NIH3T3, luminescence, dose retest (AID 435004).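 Also: stress induced by proteasome inhibitor MG132 added 30 min after compound; luciferase reporter driven by HSF1 response element in NIH3T3 cells; actives raise luminescence as potentiators of the MG132 stress response.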

Activity calls are given as the source filed them. Where only a bound is given, the exact number is not on record here.

Regarding `O=C(Nc1cccc(Cl)c1)N1CCc2ccccc2C1`, the IC50 was 26.1 µM (active) in assay [1], 7.31 µM (active) in assay [2], 25.5 µM (active) in assay [3] and 18.9 µM (active) in assay [4].

For `CCn1cc(C=C2C(=O)c3ccccc3C2=O)c2ccccc21`, the EC50 in assay [5] is 35.9 µM (inactive); in assay [6] it was > 99 µM (inactive).

On to `CCOC(=O)CSc1nc2ccc(C)cc2cc1C#N`, for which the EC50 was > 99 µM (inactive) in assay [5] and 9.32 µM (active) in assay [6].

As to `Cc1cccc(C(=O)OCc2cc3ccccc3[nH]c2=O)c1`, the EC50 in assay [5] and in assay [6] was > 99 µM (inactive) each time.

On to `CN(C)/C=C/C(=O)c1ccc(OCCN(C)c2ccccn2)cc1`, for which the IC50 in assay [7] is 29.9 µM (inactive).

With `C=COC(=O)CSc1nc(-c2cccs2)ccc1C#N`, the IC50 in assay [1] was 8.96 µM (active); in assay [2], 16.4 µM (active); in assay [3], 6.53 µM (active); in assay [4], 13.3 µM (active).

For `COCCCn1c(=O)/c(=C\c2ccccc2OC(F)F)s/c1=C(/C#N)C(=O)NCCOC`, the EC50 in assay [5] and in assay [6] was > 99 µM (inactive) each time.

Take `Cc1ccc(C(=O)c2sc3nsc(C)c3c2N)cc1`: the IC50 in assay [1] was > 100 µM (inactive); in assay [2] it was 4.6 µM (active); in assay [3] it was > 100 µM (inactive); in assay [4] it was 28.9 µM (active). Further, in assay [8], the EC50 was > 260 µM (inconclusive).

As to `O=C1CSC(=S)N1N=Cc1c(O)ccc2ccccc12`, the EC50 in assay [5] and in assay [6] was > 99 µM (inactive) in each case.

With `CS(=O)(=O)Nc1ccc(C(=O)Nc2ccc3ccccc3c2)cc1`, the IC50 in assay [1] was > 100 µM (inactive); in assay [2], 2.98 µM (active); in assay [3] it was > 100 µM (inactive); in assay [4], 6.3 µM (active).
